Results taken from publication PMC4060102, “Improved Histone Deacetylase Inhibitors as Therapeutics for the Neurodegenerative Disease Friedreich's Ataxia: A New Synthetic Route” (Pharmaceuticals, 2011).

Tests used:
recombinant HDAC1 = recombinant HDAC1 (Homo sapiens, UniProt Q13547); test: HDAC enzyme inhibition assay (Fluor-de-Lys), HDAC1
Hct116 cells = test: Cytotoxicity, antiproliferation assay; assay type: cell-based; conditions: for ratio cytotoxicity/DAC: Hct116 antiproliferation IC50 / in-cell DAC IC50
[1] = Cytotoxicity, antiproliferation assay; assay type: cell-based; conditions: human, Hct116 cells
[2] = tested on: GM15850 cells (FRDA lymphoblastoid cell line); test: In-cell deacetylase inhibition assay (DAC assay); assay type: cell-based, human; conditions: 4 h incubation
Source text: Compound dilutions were made in 100% DMSO followed by parallel dilution in media with 2% DMSO. […] The final concentration of DMSO in each well was 0.2%.

recombinant HDAC2 = recombinant HDAC2 (Homo sapiens, UniProt Q92769); test: HDAC enzyme inhibition assay (Fluor-de-Lys), HDAC2
[3] = Acid stability determination; assay type: physicochemical; conditions: pH = 2, 50 °C; for half-life at 100 µM: 0.01 M HCl in deionized water, read-out: t1/2 in acidic conditions (converted)
Procedure: Immediately after mixing, an aliquot (100 μL) was sampled and analyzed by HPLC/UV. The area under the compound peak was determined and used as the time zero reference point. […] These were analyzed by the same HPLC/UV method and the area of the peak corresponding to the test compound was measured. Percent remaining at a given time point was then calculated as the ratio of the area under the peak after incubation to that at time zero times 100.

[4] = tested on: FXN gene transcription in primary lymphocytes from a FRDA patient; test: Frataxin mRNA assay (quantitative RT-PCR); assay type: cell-based, human; conditions: 10 μM compound, 48 h, primary lymphocytes from FRDA patient donor blood, normalized to DMSO control
Procedure: In general, the activity of a compound against HDAC3 is related to its ability to increase FXN gene transcription. Compounds click-1 and -2 were assayed for their ability to increase transcription of the FXN gene in primary lymphocytes from a FRDA patient, as previously described.
Quantitative RT-PCR was used to estimate FXN mRNA levels after treatment with 10 μM compound for 48 h, and values were normalized to the level of FXN mRNA observed for a DMSO vehicle control.
Figure 3 Click-derived HDAC inhibitors induce frataxin gene expression in primary lymphocytes isolated from FRDA patient donor blood samples, compared to a standard pimelic o-aminobenzamide (109). Concentration of each compound is 10 μM.

HDAC3/NcoR2 = HDAC3/NcoR2 (Homo sapiens, UniProt O15379); test: HDAC enzyme inhibition assay (Fluor-de-Lys), HDAC3; conditions: for selectivity for HDAC3 over HDAC1: ratio of IC50 values HDAC1/HDAC3
in vivo = conditions: rat, 5 mg/kg
[5] = Brain penetration in mouse; assay type: in vivo; conditions: brain and plasma
[6] = Compound stability (method not described); assay type: physicochemical; conditions: conditions not stated
Source text: All three azides 5, 8 and 16 were subjected to click chemistry with common intermediate 3 to give the corresponding triazole products click-1, click-2 and click-3 (Scheme 5). Each compound was characterized by ^1H-, ^13C-NMR and mass spectrometry.

HDAC3/NcoR2, sequence (O15379 whole entry): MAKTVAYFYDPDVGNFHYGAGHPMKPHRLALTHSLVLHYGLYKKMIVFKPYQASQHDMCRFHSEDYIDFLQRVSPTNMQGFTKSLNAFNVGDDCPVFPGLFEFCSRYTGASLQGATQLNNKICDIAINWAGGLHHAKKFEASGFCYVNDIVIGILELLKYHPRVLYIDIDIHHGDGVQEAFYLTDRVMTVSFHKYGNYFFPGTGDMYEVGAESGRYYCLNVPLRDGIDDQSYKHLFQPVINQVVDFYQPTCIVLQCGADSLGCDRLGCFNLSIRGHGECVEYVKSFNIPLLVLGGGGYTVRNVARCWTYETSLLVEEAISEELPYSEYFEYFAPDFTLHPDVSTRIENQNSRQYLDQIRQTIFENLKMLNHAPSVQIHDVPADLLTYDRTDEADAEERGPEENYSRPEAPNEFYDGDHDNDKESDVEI
HDAC3/NcoR2, sequence (Q9Y618 395-489 partner limits assumed): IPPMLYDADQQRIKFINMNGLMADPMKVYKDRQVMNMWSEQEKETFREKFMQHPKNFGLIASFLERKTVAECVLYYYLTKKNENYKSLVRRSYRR
recombinant HDAC2, sequence (Q92769 whole entry): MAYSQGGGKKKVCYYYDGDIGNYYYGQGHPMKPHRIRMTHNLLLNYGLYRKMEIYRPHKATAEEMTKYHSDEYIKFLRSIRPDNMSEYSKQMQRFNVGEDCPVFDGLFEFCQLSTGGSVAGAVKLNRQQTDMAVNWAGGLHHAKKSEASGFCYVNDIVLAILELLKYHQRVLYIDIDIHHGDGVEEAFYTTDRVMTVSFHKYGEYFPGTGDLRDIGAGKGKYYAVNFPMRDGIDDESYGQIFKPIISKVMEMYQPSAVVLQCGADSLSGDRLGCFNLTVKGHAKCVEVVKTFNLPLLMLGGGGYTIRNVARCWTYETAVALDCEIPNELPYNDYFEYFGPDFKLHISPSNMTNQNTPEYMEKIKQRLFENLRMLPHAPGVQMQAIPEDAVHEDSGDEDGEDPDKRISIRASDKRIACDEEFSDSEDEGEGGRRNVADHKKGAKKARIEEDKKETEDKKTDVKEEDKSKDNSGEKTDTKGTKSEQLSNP
recombinant HDAC1, sequence (Q13547 whole entry): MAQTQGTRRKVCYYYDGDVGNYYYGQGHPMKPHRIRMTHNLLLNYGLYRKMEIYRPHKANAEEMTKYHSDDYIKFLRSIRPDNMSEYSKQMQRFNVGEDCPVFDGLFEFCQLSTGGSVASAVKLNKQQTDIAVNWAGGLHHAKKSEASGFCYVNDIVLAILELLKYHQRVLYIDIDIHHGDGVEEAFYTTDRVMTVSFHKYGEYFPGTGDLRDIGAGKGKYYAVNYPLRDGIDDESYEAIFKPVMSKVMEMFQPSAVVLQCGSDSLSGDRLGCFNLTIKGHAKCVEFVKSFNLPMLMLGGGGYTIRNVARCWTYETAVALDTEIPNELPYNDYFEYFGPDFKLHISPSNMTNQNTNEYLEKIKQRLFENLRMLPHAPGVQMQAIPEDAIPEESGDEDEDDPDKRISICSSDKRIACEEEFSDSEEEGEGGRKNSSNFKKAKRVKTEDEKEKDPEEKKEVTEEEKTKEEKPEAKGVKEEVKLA

IC50 (recombinant HDAC1) [nM]	IC50 ([2]; Homo sapiens) [nM]	IC50 (recombinant HDAC2) [nM]	half-life at 100 µM [3] [h]	improvement of acid half-life relative to HDACi 109 [3] [fold]	IC50 (HDAC3/NcoR2) [nM]	selectivity for HDAC3 over HDAC1 (HDAC3/NcoR2) [fold]	SMILES	ratio cytotoxicity/DAC (Hct116 cells)	IC50 [1] [nM]	promoting transcription of the silenced FXN gene (FXN mRNA) [4]	other results
66	5600	477	33	5.5	28	2.4	Nc1ccccc1NC(=O)/C=C/c1cn(CC=Cc2ccccc2)nn1 [Click-1, (E)-N-(2-Aminophenyl)-3-(1-cinnamyl-1H-1,2,3-triazol-4-yl)acrylamide]	4.1	23000	highly active	Kp (in vivo; brain and plasma, intravenous): 0.33; Cmax (in vivo; brain, iv): 800 ng/g; Tmax (in vivo; brain, iv): 5 min
46	5100	466	24	4	39	1.2	Nc1ccccc1NC(=O)/C=C/c1cn(C/C=C/c2ccc3cc[nH]c3c2)nn1 [Click-2, (E)-3-(1-((E)-3-(1H-Indol-6-yl)allyl)-1H-1,2,3-triazol-4-yl)-N-(2-aminophenyl)acrylamide]	5.3	27000	highly active	Kp [5]: 0.03
–	29400	–	–	–	–	–	Nc1ccccc1NC(=O)/C=C/c1cn(CCOc2ccc3cc[nH]c3c2)nn1 [Click-3, (E)-3-(1-(2-((1H-Indol-6-yl)oxy)ethyl)-1H-1,2,3-triazol-4-yl)-N-(2-aminophenyl)acrylamide]	–	–	–	stability [6]: poor stability
–	–	–	–	–	–	–	Nc1ccccc1NC(=O)c1ccc(CNC(=O)OCc2cccnc2)cc1 [MS-275, reference compound]	–	–	–	IC50 (Hct116 cells; Hct116 cells): 1000 nM; IC50 [2]: 1900 nM

SMILES	IC50 (recombinant HDAC1) [nM]	IC50 ([2]; Homo sapiens) [nM]	IC50 (recombinant HDAC2) [nM]	half-life at 100 µM [3] [h]	improvement of acid half-life relative to HDACi 109 [3] [fold]	IC50 (HDAC3/NcoR2) [nM]	selectivity for HDAC3 over HDAC1 (HDAC3/NcoR2) [fold]	ratio cytotoxicity/DAC (Hct116 cells)	IC50 [1] [nM]	promoting transcription of the silenced FXN gene (FXN mRNA) [4]	other results
Cc1ccc(C(=O)NCCCCCC(=O)Nc2ccccc2N)cc1 [compound 109]	–	–	–	6	–	–	–	–	–	–	–
